Experimental data taken from patent US20260240810A1, “COMPOSITIONS AND METHODS FOR REDUCING ADVERSE SIDE EFFECTS IN CANCER TREATMENT” (priority 2022, published 2026).

How the values were obtained:
[1] = pharmacokinetic data, J. Scicinski et al. 2011; cited from earlier work
[2] = cited from earlier work
hemoglobin = biological target: T1, hemoglobin (Homo sapiens, UniProt P68871); experiment: 14C-RRx-001 binding to hemoglobin in blood; conditions: blood of rats, dogs, monkeys, humans; liquid scintillation counter
T1 construct: blood not pooled from 3 individual male humans; from tissue; host or cells: whole blood of 3 individual male humans
Method: ^14C-RRx-001 (1 μM and 20 μM) was incubated at a temperature of 37° C. for a time period of 30 minutes with blood pooled from 3 male Sprague Dawley rats, 3 male beagle dogs, and 2 male cynomolgus monkeys, and blood not pooled from 3 individual male humans. […] The range of binding to the 3 different human hemoglobin varied from 24% to 34%.

[3] = tested on: severe oral mucositis in patients receiving head and neck chemoradiotherapy; experiment: PREVLAR Phase 2a trial: oral mucositis in patients receiving cisplatin + IMRT; type: in vivo, human; conditions: for Median SOM duration: all patients, baseline to last day of radiation, 0 days if never SOM; for percent of SOM visits: minimum 65 Gy cumulative radiation; for median duration of SOM: only patients who developed SOM, onset to last visit with SOM
Method: Referring to FIG. 1, FIG. 1 is a table 100 showing a trial in which RRx-001 was tested in various groups of patients that were being treated for cancer with a combination of chemotherapy and IMRT. The various groups were divided into “Arms” based on a treatment: • Arm 1. pretreatment with 4 mg RRx-001 2 times per week for 2 weeks followed by 40 mg/m^2 each week or 100 mg/m^2 once every 3 weeks cisplatin+IMRT. • Arm 2. pretreatment with 4 mg RRx-001 2 times per week for 2 weeks followed by cotreatment with 4 mg RRx-001 2 times once on week 2 and once on week 5+40 mg/m^2 each week or 100 mg/m^2 once every 3 weeks cisplatin+IMRT. • Arm 3. pretreatment with 4 mg RRx-001 2 times per week for 2 weeks followed by cotreatment with 4 mg RRx-001 […]+40 mg/m^2 each week or 100 mg/m^2 once every 3 weeks cisplatin+IMRT. • Arm 4. standard of care 40 mg/m^2 each week or 100 mg/m^2 once every 3 weeks cisplatin+IMRT without RRx-001.
Accordingly, patients in Arm 1 of the study were administered a pretreatment of RRx-001 over a 2-week period. No RRx-001 was administered to the patients following the pretreatment period. Following the 2-week pretreatment period, the therapeutic agent comprising cisplatin and IMRT was administered to the patients over a 6-week period.
Patients in Arm 2 of the study were likewise administered a pretreatment of RRx-001 over a 2-week period. But RRx-001 was further administered at a low dose concurrently with cisplatin and IMRT over the 6-week period following the pretreatment period.
Arm 4 of the study was the control or standard of care (SOC). No RRx-001 was administered to the patients in Arm 4 of the study and there was no pretreatment period. All patients received the same amounts of cisplatin and IMRT for Arm 1, Arm2, Arm 3, and Arm 4 of the study. Patients in the study had the option to stop or refuse treatment at any time and not all patients finished the entire treatment.
Example 2 is a Phase 2a randomized, multi-institutional (n=13, of which 12 enrolled), open-label/unblinded, controlled trial in which patients were centrally randomized into four groups (“Arms”), with approximately 10 patients per Arm (or group) before the start of CRT, stratified by oropharynx versus oral cavity site. See M. Bonomi, et al. (2023) Int. J. Radiat. Oncol. Biol. Phys. 116(3): p. 551-559.
Study participants were adults (>18 years) with pathologically diagnosed stage III to IVB locally advanced (nonmetastatic) squamous cell carcinoma of the oral cavity or oropharynx that were scheduled to receive definitive or postoperative daily fractionation IMRT of 2.0 Gy to 2.2 Gy for a total dose of 60 Gy to 72 Gy with concomitant cisplatin given as either weekly (40 mg/m^2) or tri-weekly (100 mg/m^2) infusions. Radiation fields included at least 2 oral sites at risk of OM (e.g., buccal mucosa, floor of mouth, lateral/ventral tongue, or soft palate), which were planned to receive a minimum cumulative dose of 55 Gy. […] Patients received a pretreatment evaluation including complete history, dental assessment, physical examination, complete blood count and complete metabolic profile, hematology and biochemistry profiles, optional laryngoscopy, chest computed tomography (CT) or positron emission tomography (PET)/CT, CT, and a magnetic resonance imaging (MRI) or PET/CT of the tumor site and neck nodes.
Arms 1 to 3 received twice weekly infusions of RRx-001, 4 mg/dose after a premedication dose of dexamethasone (10 mg) for the 2 weeks preceding the start of CRT. Patients in Arm 2 received two additional 4 mg doses of RRx-001 after being premedicated with dexamethasone in weeks 2 and 5 of their CRT regimen. Patients in Arm 3 received weekly RRx-001 (4 mg after dexamethasone pre-dosing) during the first 6 weeks of CRT. Treatment was completed on the last day of radiation therapy (LDRT).
The treatment phase commenced 2 weeks before the start of CRT and continued until the LDRT. […]

[4] = Repeated-dose toxicity study in rats; type: in vivo; conditions: 3 times/week up to 4 weeks
Method: Repeated-dose toxicity studies of RRx-001 (3 times/week up to 4 weeks in duration) were conducted in rats at dose levels of 12 mg/kg, 20.1 mg/kg, and 30 mg/kg per day and in dogs at dose levels of 4 mg/kg, 8 mg/kg, and 12 mg/kg per day (due to clinical signs, the 8 mg/kg and 12 mg/kg doses were reduced to 3 mg/kg and 5 mg/kg on Day 4). The no observed adverse effect level was <12 mg/kg in rats and 5 mg/kg in dogs.

[5] = Arm 1: RRx-001 pretreatment + SOC chemoradiation

T1 sequence (P68871 2-147 limits assumed): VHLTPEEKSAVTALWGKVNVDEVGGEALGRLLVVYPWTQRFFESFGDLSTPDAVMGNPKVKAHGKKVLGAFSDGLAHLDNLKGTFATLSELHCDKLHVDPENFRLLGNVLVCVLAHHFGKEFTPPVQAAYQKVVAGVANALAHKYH
T1 sequence (P69905 2-142 partner limits assumed): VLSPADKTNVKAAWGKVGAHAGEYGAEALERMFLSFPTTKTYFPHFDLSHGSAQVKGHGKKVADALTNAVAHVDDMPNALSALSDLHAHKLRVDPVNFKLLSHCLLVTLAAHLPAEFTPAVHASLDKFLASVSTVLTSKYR

O=C(CBr)N1CC([N+](=O)[O-])([N+](=O)[O-])C1 [RRx-001, 2-bromo-1-(3,3-dinitroazetidin-1-yl) ethan-1-one]
half-life of RRx-001 [1]: under an hour | dose-limiting toxicities and drug-drug interactions ([2]; N. Jayabalan et al. 2023): no dose-limiting toxicities and no drug-drug interactions have been observed | safety and tolerability in humans ([2]; studies from multiple independent groups): safe and well-tolerated | tolerability in prior safety assessments in humans ([2]; with and without concurrent radiation therapy, T. Reid et al. 2015): well-tolerated without significant toxicity | partitioning of radioactivity in blood (hemoglobin): highly partition into red blood cells and covalently bind to hemoglobin | estimate (averaged across all visits) MMRM probability of SOM ([3]; (pooled) RRx-001 treatment): 15.3% | incidence of SOM (any WHO score ≥3 between baseline to the last day of radiation) ([3]; Arm 1): 83.3% | patients with at least one day of Grade 4 OM between the first and LDRT ([3]; Arm 1): 23.1% | percent of visits with most severe forms (Grade 4) mucositis ([3]; Arm 1): 3.3% | decrease in duration of SOM through 60 Gy vs. Arm 4 ([3]; Arm 1: 4 mg RRx-001 2 times per week for 2 weeks pretreatment, then cisplatin+IMRT): 16 days | average days longer than Arm 4 before onset of SOM from start of chemotherapy [3, 5]: 12 days | decrease in SOM duration following treatment of IMRT compared to Arm 4 [3, 5]: 18 days | Median SOM duration ([3]; Arm 1): 5 days | percent of SOM visits ([3]; Arm 1): 23.6% | median duration of SOM ([3]; Arm 1): 8.5 days | incidence of SOM (any WHO score ≥3 between baseline to the last day of radiation) ([3]; Arm 2): 70% | patients with at least one day of Grade 4 OM between the first and LDRT ([3]; Arm 2): 40% | percent of visits with most severe forms (Grade 4) mucositis ([3]; Arm 2): 12.2% | incidence of grade 4 OM through 60 Gy ([3]; Arm 2: RRx-001 pretreatment + 2 concurrent doses + SOC chemoradiation): 40% | Median SOM duration ([3]; Arm 2): 13.5 days | percent of SOM visits ([3]; Arm 2): 22.2% | median duration of SOM ([3]; Arm 2): 17 days | incidence of SOM (any WHO score ≥3 between baseline to the last day of radiation) ([3]; Arm 3): 76.9% | patients with at least one day of Grade 4 OM between the first and LDRT ([3]; Arm 3): 46.2% | percent of visits with most severe forms (Grade 4) mucositis ([3]; Arm 3): 7.7% | incidence of grade 4 OM through 60 Gy ([3]; Arm 3: RRx-001 pretreatment + 6 concurrent doses + SOC chemoradiation): 46% | Median SOM duration ([3]; Arm 3): 8 days | percent of SOM visits ([3]; Arm 3): 25.7% | median duration of SOM ([3]; Arm 3): 10 days | Odds ratio estimate ([3]; MMRM analysis of SOM, contrast SOC alone / (Pooled RRx-001)): 3.24 | SOM Probability (averaged across all visits) ([3]; MMRM analysis, pooled RRx-001-treated patients): 0.153 | aggregate percent of SOM visits ([3]; active arms, patients with minimum 65 Gy cumulative radiation): 23.9% | incidence of SOM through the short-term follow-up period ([3]; active patients): 80% | SOM incidence by the last dose of radiotherapy (LDRT) ([3]; aggregate active Arms, about 72 Gy): 77.1% | patients exhibiting SOM ([3]; patients who received RRx-001 (treated Arms), cumulative RT dose 45 Gy): 42.9% | patients exhibiting SOM ([3]; treated Arms, 55 Gy): 57.1% | patients exhibiting SOM ([3]; treated Arms, 65 Gy): 71.4% | no observed adverse effect level [4]: < 12 mg/kg
